In PMC10436550, “Subacute toxicity evaluations of LPM3480392 in rats, a full µ-opioid receptor biased agonist” (Frontiers in Pharmacology, 2023):

Tests used:
[1] = system: Sprague Dawley (SD) rats; experiment: Clinical chemistry, 4-week subacute toxicity study
[2] = system: Sprague Dawley (SD) rats; experiment: Urinalysis, 4-week subacute toxicity study; assay type: in vivo, rat
Protocol: Urine samples were directly collected from the metabolic cage at the end of dosing phase (Day 26) and at the end of recovery phase (Recovery Day 28), respectively. Urinalysis parameters in Table 1 were evaluated using CLINITEK Atlas automatic urine analyzer (Germany).

[3] = female rats, 0.6 mg/kg/day, End of dosing phase
[4] = female rats, 0.6 mg/kg/day, End of recovery phase
[5] = female rats, 1.2 mg/kg/day, End of dosing phase
[6] = female rats, 1.2 mg/kg/day, End of recovery phase
[7] = female rats, 2.4 mg/kg/day, End of dosing phase
[8] = female rats, 2.4 mg/kg/day, End of recovery phase
[9] = male rats, 0.6 mg/kg/day, End of dosing phase
[10] = male rats, 0.6 mg/kg/day, End of recovery phase
[11] = male rats, 1.2 mg/kg/day, End of dosing phase
[12] = male rats, 1.2 mg/kg/day, End of recovery phase
[13] = male rats, 2.4 mg/kg/day, End of dosing phase
[14] = male rats, 2.4 mg/kg/day, End of recovery phase
[15] = 0.6 mg/kg/day, End of dosing phase, N 5
[16] = 0.6 mg/kg/day, End of recovery phase, N 5
[17] = 1.2 mg/kg/day, End of dosing phase, N 5
[18] = 1.2 mg/kg/day, End of recovery phase, N 5
[19] = 2.4 mg/kg/day, End of dosing phase, N 4
[20] = 2.4 mg/kg/day, End of dosing phase, N 5
[21] = 2.4 mg/kg/day, End of recovery phase, N 4
[22] = 2.4 mg/kg/day, End of recovery phase, N 5

## Fc1ccc([C@]2(CCNCc3cccc(Cl)c3)CCO[C@]3(CCOC3)C2)nc1 [LPM3480392]
[1]; [3]
  A/G: 3.25 ± 0.35
  ALB: 43.3 ± 2.6 g/L
  ALP: 87.4 ± 25.6 U/L
  ALT: 24.9 ± 4.2 U/L
  AST: 126.9 ± 16.0 U/L
  CREA: 27.9 ± 2.4 µmol/L
  GLU: 6.20 ± 0.43 mmol/L
  TBIL: 1.0 ± 0.5 µmol/L
  TG: 0.19 ± 0.05 mmol/L
  TP: 56.7 ± 2.2 g/L
[1]; [4]
  A/G: 2.68 ± 0.12
  ALB: 46.4 ± 2.4 g/L
  ALP: 60.5 ± 13.8 U/L
  ALT: 29.0 ± 6.6 U/L
  AST: 103.0 ± 8.5 U/L
  CREA: 36.2 ± 3.7 µmol/L
  GLU: 7.01 ± 0.37 mmol/L
  TBIL: 1.1 ± 0.5 µmol/L
  TG: 0.28 ± 0.08 mmol/L
  TP: 63.8 ± 2.6 g/L
[1]; [5]
  A/G: 2.70 ± 0.42
  ALB: 40.1 ± 2.0 g/L
  ALP: 95.9 ± 26.3 U/L
  ALT: 28.0 ± 8.0 U/L
  AST: 122.5 ± 16.8 U/L
  CREA: 29.4 ± 2.4 µmol/L
  GLU: 6.44 ± 0.43 mmol/L
  TBIL: 0.7 ± 0.2 µmol/L
  TG: 0.19 ± 0.03 mmol/L
  TP: 55.2 ± 2.1 g/L
[1]; [6]
  A/G: 2.63 ± 0.37
  ALB: 47.0 ± 3.5 g/L
  ALP: 51.5 ± 17.8 U/L
  ALT: 29.2 ± 2.7 U/L
  AST: 95.9 ± 16.3 U/L
  CREA: 35.2 ± 1.3 µmol/L
  GLU: 6.80 ± 0.80 mmol/L
  TBIL: 1.2 ± 0.3 µmol/L
  TG: 0.27 ± 0.03 mmol/L
  TP: 65.1 ± 4.0 g/L
[1]; [7]
  A/G: 2.64 ± 0.37
  ALB: 39.9 ± 1.9 g/L
  ALP: 124.1 ± 41.1 U/L
  ALT: 28.7 ± 4.2 U/L
  AST: 132.4 ± 15.4 U/L
  CREA: 24.4 ± 1.5 µmol/L
  GLU: 6.66 ± 0.45 mmol/L
  TBIL: 0.7 ± 0.2 µmol/L
  TG: 0.16 ± 0.03 mmol/L
  TP: 55.2 ± 1.4 g/L
[1]; [8]
  A/G: 2.55 ± 0.13
  ALB: 45.5 ± 2.1 g/L
  ALP: 59.2 ± 16.1 U/L
  ALT: 34.0 ± 7.0 U/L
  AST: 105.9 ± 15.9 U/L
  CREA: 32.5 ± 3.1 µmol/L
  GLU: 6.61 ± 0.24 mmol/L
  TBIL: 0.9 ± 0.6 µmol/L
  TG: 0.30 ± 0.06 mmol/L
  TP: 63.4 ± 3.3 g/L
[1]; female rats, all LPM3480392 groups
  Increased AST and GLU and decreased CREA, magnitude: < 18%
[1]; females, all LPM3480392 groups
  Decreased ALB, magnitude: < 18%
  Decreased TP, magnitude: < 18%
[1]; [9]
  A/G: 3.02 ± 0.34
  ALB: 39.8 ± 2.0 g/L
  GLU: 5.90 ± 0.48 mmol/L
  TG: 0.21 ± 0.06 mmol/L
  TP: 53.0 ± 2.3 g/L
[1]; [10]
  A/G: 2.10 ± 0.18
  ALB: 37.4 ± 0.4 g/L
  GLU: 7.26 ± 0.55 mmol/L
  TG: 0.26 ± 0.16 mmol/L
  TP: 55.2 ± 1.7 g/L
[1]; [11]
  A/G: 3.03 ± 0.37
  ALB: 38.4 ± 2.0 g/L
  GLU: 6.39 ± 0.32 mmol/L
  TG: 0.19 ± 0.05 mmol/L
  TP: 51.3 ± 2.3 g/L
[1]; [12]
  A/G: 2.05 ± 0.08
  ALB: 36.6 ± 0.8 g/L
  GLU: 6.64 ± 0.99 mmol/L
  TG: 0.33 ± 0.12 mmol/L
  TP: 54.5 ± 0.6 g/L
[1]; [13]
  A/G: 2.94 ± 0.30
  ALB: 38.0 ± 1.6 g/L
  GLU: 6.76 ± 0.56 mmol/L
  TG: 0.17 ± 0.05 mmol/L
  TP: 51.0 ± 1.4 g/L
[1]; [14]
  A/G: 2.25 ± 0.27
  ALB: 37.7 ± 0.7 g/L
  GLU: 6.53 ± 0.83 mmol/L
  TG: 0.31 ± 0.12 mmol/L
  TP: 54.6 ± 1.7 g/L
[1]; males, all LPM3480392 groups
  Decreased ALB, magnitude: < 10%
  Decreased GLU, magnitude: < 20%
  Decreased TG, magnitude: < 49%
  Decreased TP, magnitude: < 10%
[2]; [15]
  KET (mmol/L) of males: animals with grade 1.5: 3
  KET (mmol/L) of males: animals with grade 3.9: 1
  KET (mmol/L) of males: animals with grade —: 1
  NIT of males: animals with grade +: 2
  NIT of males: animals with grade —: 3
  pH of females: animals with grade 7.0: 1
  pH of females: animals with grade 7.5: 3
  pH of females: animals with grade 8.5: 1
[2]; [16]
  KET (mmol/L) of males: animals with grade 1.5: 2
  KET (mmol/L) of males: animals with grade 3.9: 1
  KET (mmol/L) of males: animals with grade —: 2
  NIT of males: animals with grade +: 3
  NIT of males: animals with grade —: 2
  pH of females: animals with grade 6.0: 0
  pH of females: animals with grade 6.5: 0
  pH of females: animals with grade 7.0: 0
  pH of females: animals with grade 7.5: 4
  pH of females: animals with grade 8.0: 1
[2]; [17]
  KET (mmol/L) of males: animals with grade 1.5: 3
  KET (mmol/L) of males: animals with grade 3.9: 1
  KET (mmol/L) of males: animals with grade —: 1
  NIT of males: animals with grade +: 1
  NIT of males: animals with grade —: 4
  pH of females: animals with grade 7.0: 1
  pH of females: animals with grade 7.5: 3
  pH of females: animals with grade 8.5: 1
[2]; [18]
  KET (mmol/L) of males: animals with grade 1.5: 2
  KET (mmol/L) of males: animals with grade 3.9: 1
  KET (mmol/L) of males: animals with grade —: 2
  NIT of males: animals with grade +: 1
  NIT of males: animals with grade —: 4
  pH of females: animals with grade 6.0: 1
  pH of females: animals with grade 6.5: 0
  pH of females: animals with grade 7.0: 2
  pH of females: animals with grade 7.5: 1
  pH of females: animals with grade 8.0: 1
[2]; [19]
  pH of females: animals with grade 7.0: 0
  pH of females: animals with grade 7.5: 1
  pH of females: animals with grade 8.5: 3
[2]; [20]
  KET (mmol/L) of males: animals with grade 1.5: 0
  KET (mmol/L) of males: animals with grade 3.9: 0
  KET (mmol/L) of males: animals with grade —: 5
  NIT of males: animals with grade +: 1
  NIT of males: animals with grade —: 4
[2]; [21]
  pH of females: animals with grade 6.0: 0
  pH of females: animals with grade 6.5: 2
  pH of females: animals with grade 7.0: 2
  pH of females: animals with grade 7.5: 0
  pH of females: animals with grade 8.0: 0
[2]; [22]
  KET (mmol/L) of males: animals with grade 1.5: 1
  KET (mmol/L) of males: animals with grade 3.9: 0
  KET (mmol/L) of males: animals with grade —: 4
  NIT of males: animals with grade +: 0
  NIT of males: animals with grade —: 5
